pIC50: −log10 of the molar value. Activity calls are given as the source filed them.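 Rule for the calls: active = compound cutting the HIV-1 infection reporter signal by at least half at some tested dose; inactive = the rest.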

This experiment relates to MAGI-CCR5 cells, HIV-1 Ba-L, beta-gal luminescence, 48 h. The experiment is described as follows: HIV-1 replication inhibition, CCR5-tropic virus, dose response, MAGI-CCR5 cells, HIV-1 Ba-L, 5% and 10% serum, set 2 (AID 2788).
[1] abbreviates: measured here: IC50 in 10% serum.

Usually pIC50 stands for the IC50 on a negative log10 scale, so that one unit is a factor of ten. As to `CS(=O)(=O)C1=NSC2=NC(=O)/C(=C\c3cccn3-c3ccc(Cl)cc3)C(=N)N21`, the pIC50 was 4.20. The pIC50 under setting [1] is less than 4.00.

Regarding `Cc1ccc(-n2cccc2/C=C2/C(=N)N3C(=NC2=O)SN=C3S(C)(=O)=O)cc1Cl`, the pIC50 is 4.33. Under setting [1], this compound showed a negative-log IC50 (pIC50) of 4.22.

For `COc1ccc(C(=O)Oc2ccc(C=NNc3ccc(Cl)c(C(=O)O)c3)cc2OC)cc1`, the pIC50 was 4.25. Further, the pIC50 under setting [1] was 4.09.

In the case of `O=C(O)c1cc(NN=Cc2ccc(-c3ccccc3)cc2)ccc1Cl`, the pIC50 was 4.03. The pIC50 under setting [1] was less than 4.00.

As usually defined, the IC50 is the concentration that gives 50% inhibition. Regarding `CS(=O)(=O)C1=NSC2=NC(=O)/C(=C\c3ccc(OS(=O)(=O)c4ccccc4)cc3)C(=N)N21`, the IC50 is > 100 µM (inactive). This compound showed a pIC50 under setting [1] of less than 4.00.

For `O=c1c(=Cc2cc([N+](=O)[O-])cc([N+](=O)[O-])c2O)sc2nc3ccccc3n12`, the pIC50 was 4.28. The pIC50 under setting [1] was less than 4.00.

For the compound `O=C1NC(=S)N(c2ccc(F)cc2)C(=O)/C1=C/c1ccco1`, the negative-log IC50 (pIC50) was 4.28. Under setting [1], this compound showed a pIC50 of 4.31.

Turning to `COc1cc(C=NNc2ccc(Cl)c(C(=O)O)c2)ccc1OC(=O)c1ccccc1F`, the IC50 is > 100 µM (inactive). Further, the pIC50 under setting [1] was less than 4.00.

In the case of `Cc1ccc(S(=O)(=O)Oc2ccc(/C=C3/C(=N)N4C(=NC3=O)SN=C4S(C)(=O)=O)cc2)cc1`, the pIC50 is 4.11. The pIC50 under setting [1] is less than 4.00.

In the case of `CC(C)S(=O)(=O)C1=NSC2=NC(=O)/C(=C\c3ccc(-c4ccccc4)o3)C(=N)N21`, the pIC50 is 4.66. This compound gave a pIC50 under setting [1] of 4.36.

As for `COc1ccc(OC)c(N2C(=O)/C(=C/c3ccco3)C(=O)NC2=S)c1`, the pIC50 was 4.23. Under setting [1], this compound showed a pIC50 of 4.28.

As for `CCS(=O)(=O)C1=NSC2=NC(=O)/C(=C\c3ccc(OS(=O)(=O)c4ccccc4)cc3)C(=N)N21`, the IC50 was > 100 µM (inactive). The compound further gave a pIC50 under setting [1] of less than 4.00.

Take `COc1cc(C=NNc2ccc(Cl)c(C(=O)O)c2)ccc1OC(=O)c1ccc(F)cc1`: the pIC50 is 4.02. Also, the pIC50 under setting [1] was less than 4.00.

On to `Cc1ccc(-n2c(O)c(C=Nc3ccccc3-c3n[nH]c(=S)[nH]c3=O)c3ccccc3c2=O)c(C)c1`, for which the pIC50 is 4.74. This compound gave a pIC50 under setting [1] of 4.64.

With `COc1ccccc1NS(=O)(=O)c1cccc(-n2c(O)c(C=Nc3ccccc3C(=O)O)c3ccccc3c2=O)c1`, the pIC50 was 4.31. This compound also gave a pIC50 under setting [1] of 4.26.

In the case of `CC1(C)CC(=O)C2=C(C1)c1c(ccc3ccccc13)NC2c1cc([N+](=O)[O-])cc([N+](=O)[O-])c1O` (stereo not drawn), the pIC50 is 4.81. The negative logarithm of the IC50 (pIC50) under setting [1] was 4.45.

On to `O=C(O)c1ccccc1C(=O)N(Cc1cccc(Oc2ccc(Cl)cc2)c1)[C@H]1CCCc2ccccc21`, for which the pIC50 is 4.79. The compound further gave a pIC50 under setting [1] of 4.42.

As for `CC(C)S(=O)(=O)C1=NSC2=NC(=O)/C(=C\c3ccc(-c4cccc(C(=O)O)c4)o3)C(=N)N21`, the pIC50 is 4.34. The compound further showed a pIC50 under setting [1] of 4.30.

Turning to `Cc1cc(C)cc(-n2cccc2/C=C2/C(=N)N3C(=NC2=O)SN=C3S(C)(=O)=O)c1`, the pIC50 is 4.34. Also, the pIC50 under setting [1] is 4.25.
